Measurements reported in publication PMC4854315, “Discovery of a novel allosteric inhibitor-binding site in ERK5: comparison with the canonical kinase hinge ATP-binding site” (Acta Crystallographica. Section D, Structural Biology, 2016).

Key:
Assay type in all cases: biochemical
ADRBK2 (GRK3) = target: T1, ADRBK2 (GRK3) (Homo sapiens, UniProt P35626); experiment: Z'-LYTE kinase panel
T1 construct: purchased ThermoFisher (SelectScreen, Z'-LYTE)
T1 sequence (P35626 1-688): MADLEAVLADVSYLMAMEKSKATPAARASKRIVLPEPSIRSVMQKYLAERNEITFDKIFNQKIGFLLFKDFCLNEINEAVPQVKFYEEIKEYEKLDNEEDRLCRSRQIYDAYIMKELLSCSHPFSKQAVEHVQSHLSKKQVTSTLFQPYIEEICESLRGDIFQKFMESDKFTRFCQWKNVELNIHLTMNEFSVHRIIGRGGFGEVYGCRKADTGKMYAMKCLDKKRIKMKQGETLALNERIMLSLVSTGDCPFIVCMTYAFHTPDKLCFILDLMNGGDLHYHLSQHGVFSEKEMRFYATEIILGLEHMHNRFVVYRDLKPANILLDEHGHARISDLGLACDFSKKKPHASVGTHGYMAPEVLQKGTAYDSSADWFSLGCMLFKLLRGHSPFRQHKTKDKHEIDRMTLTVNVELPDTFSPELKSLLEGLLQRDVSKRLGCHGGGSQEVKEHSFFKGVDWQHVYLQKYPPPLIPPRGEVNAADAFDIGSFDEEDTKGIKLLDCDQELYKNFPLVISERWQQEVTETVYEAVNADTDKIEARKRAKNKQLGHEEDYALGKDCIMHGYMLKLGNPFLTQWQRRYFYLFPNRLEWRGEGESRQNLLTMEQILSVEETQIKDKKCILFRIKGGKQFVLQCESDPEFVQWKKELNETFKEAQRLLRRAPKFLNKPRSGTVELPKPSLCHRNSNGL
Procedure, shortened: (§1)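 Screened at 10 µM against a 225-kinase panel; the Z′-LYTE standard assay gave percentage inhibition values.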

AKT1 (PKB alpha) = target: T2, AKT1 (PKB alpha) (Homo sapiens, UniProt P31749); experiment: Z'-LYTE kinase panel
T2 construct: purchased ThermoFisher (SelectScreen, Z'-LYTE)
Procedure, shortened: as §1

AURKC (Aurora C) = target: T3, AURKC (Aurora C) (Homo sapiens, UniProt Q9UQB9); experiment: Z'-LYTE kinase panel
T3 construct: purchased ThermoFisher (SelectScreen, Z'-LYTE)
T3 sequence (Q9UQB9 1-309): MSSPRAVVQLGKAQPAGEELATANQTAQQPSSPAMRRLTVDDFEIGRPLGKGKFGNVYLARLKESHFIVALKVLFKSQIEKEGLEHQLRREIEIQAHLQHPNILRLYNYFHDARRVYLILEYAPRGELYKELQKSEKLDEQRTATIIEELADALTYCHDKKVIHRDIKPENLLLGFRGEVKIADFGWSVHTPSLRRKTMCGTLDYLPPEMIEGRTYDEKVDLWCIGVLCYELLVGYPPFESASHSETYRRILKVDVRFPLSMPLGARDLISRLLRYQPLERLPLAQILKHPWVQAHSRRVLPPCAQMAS
Procedure, shortened: as §1

CSNK1D (CK1 delta) = target: T4, CSNK1D (CK1 delta) (Homo sapiens, UniProt P48730); experiment: Z'-LYTE kinase panel
T4 construct: purchased ThermoFisher (SelectScreen, Z'-LYTE)
Procedure, shortened: as §1

DYRK1A = target: T5, DYRK1A (Homo sapiens, UniProt Q13627); experiment: Z'-LYTE kinase panel
T5 construct: purchased ThermoFisher (SelectScreen, Z'-LYTE)
Procedure, shortened: as §1

EPHB1 = target: T6, EPHB1 (Homo sapiens, UniProt P54762); experiment: Z'-LYTE kinase panel
T6 construct: purchased ThermoFisher (SelectScreen, Z'-LYTE)
T6 sequence (P54762 18-984): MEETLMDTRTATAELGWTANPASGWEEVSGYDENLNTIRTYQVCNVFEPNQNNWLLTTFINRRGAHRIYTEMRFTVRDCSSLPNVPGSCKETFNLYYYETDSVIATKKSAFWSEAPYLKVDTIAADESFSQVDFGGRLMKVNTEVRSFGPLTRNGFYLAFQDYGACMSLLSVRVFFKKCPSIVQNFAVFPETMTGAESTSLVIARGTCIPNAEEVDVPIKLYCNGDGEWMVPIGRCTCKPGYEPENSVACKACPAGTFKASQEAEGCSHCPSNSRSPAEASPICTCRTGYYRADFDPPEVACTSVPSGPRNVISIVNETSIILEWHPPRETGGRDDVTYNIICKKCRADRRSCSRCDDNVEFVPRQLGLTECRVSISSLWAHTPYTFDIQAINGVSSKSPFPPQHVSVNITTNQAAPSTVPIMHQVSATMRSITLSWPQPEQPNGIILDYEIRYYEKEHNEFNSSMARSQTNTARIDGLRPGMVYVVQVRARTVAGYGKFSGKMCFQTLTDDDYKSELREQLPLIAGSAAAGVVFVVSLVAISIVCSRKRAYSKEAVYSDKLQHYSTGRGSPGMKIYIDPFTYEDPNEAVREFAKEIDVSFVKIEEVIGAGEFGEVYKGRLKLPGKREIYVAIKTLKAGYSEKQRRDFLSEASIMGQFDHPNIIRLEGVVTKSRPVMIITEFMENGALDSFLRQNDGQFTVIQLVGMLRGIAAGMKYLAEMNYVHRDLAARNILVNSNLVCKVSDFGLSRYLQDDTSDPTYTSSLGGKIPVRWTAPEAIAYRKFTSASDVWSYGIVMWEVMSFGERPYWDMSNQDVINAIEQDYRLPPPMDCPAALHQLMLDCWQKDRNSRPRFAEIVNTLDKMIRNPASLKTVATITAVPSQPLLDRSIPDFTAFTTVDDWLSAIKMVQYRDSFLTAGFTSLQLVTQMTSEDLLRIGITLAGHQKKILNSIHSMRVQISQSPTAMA
Procedure, shortened: as §1

HIPK3 (YAK1) = target: T7, HIPK3 (YAK1) (Homo sapiens, UniProt Q9H422); experiment: Z'-LYTE kinase panel
T7 construct: purchased ThermoFisher (SelectScreen, Z'-LYTE)
Procedure, shortened: as §1

PTK2 (FAK) = target: T8, PTK2 (FAK) (Homo sapiens, UniProt Q05397); experiment: Z'-LYTE kinase panel
T8 construct: purchased ThermoFisher (SelectScreen, Z'-LYTE)
Procedure, shortened: as §1

[1] = system: 225 kinases in the ThermoFisher standard kinase panel; experiment: Kinase-panel activity screen, whole panel; conditions: 10 µM compound; for Kinase selectivity profile in words: panel of 225 kinases
Description: Compounds 2, 3 and 5 were tested for activity against the 225 kinases in the ThermoFisher standard kinase panel. The standard Z′-LYTE assay protocol (ThermoFisher) was used to measure the percentage inhibition at 10 µM compound concentration (details are provided in the supporting information).

T4 sequence (P48730 whole entry): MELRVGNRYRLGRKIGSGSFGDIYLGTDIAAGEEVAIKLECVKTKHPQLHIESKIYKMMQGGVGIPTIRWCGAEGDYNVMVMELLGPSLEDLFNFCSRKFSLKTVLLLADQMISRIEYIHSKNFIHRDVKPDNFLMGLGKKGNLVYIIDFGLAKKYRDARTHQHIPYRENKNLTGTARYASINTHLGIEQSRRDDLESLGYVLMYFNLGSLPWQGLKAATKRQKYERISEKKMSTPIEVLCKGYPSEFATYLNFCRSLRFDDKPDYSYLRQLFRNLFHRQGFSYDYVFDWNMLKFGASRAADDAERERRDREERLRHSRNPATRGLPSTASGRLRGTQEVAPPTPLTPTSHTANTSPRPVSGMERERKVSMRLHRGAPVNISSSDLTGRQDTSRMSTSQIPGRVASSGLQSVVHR
T2 sequence (P31749 whole entry): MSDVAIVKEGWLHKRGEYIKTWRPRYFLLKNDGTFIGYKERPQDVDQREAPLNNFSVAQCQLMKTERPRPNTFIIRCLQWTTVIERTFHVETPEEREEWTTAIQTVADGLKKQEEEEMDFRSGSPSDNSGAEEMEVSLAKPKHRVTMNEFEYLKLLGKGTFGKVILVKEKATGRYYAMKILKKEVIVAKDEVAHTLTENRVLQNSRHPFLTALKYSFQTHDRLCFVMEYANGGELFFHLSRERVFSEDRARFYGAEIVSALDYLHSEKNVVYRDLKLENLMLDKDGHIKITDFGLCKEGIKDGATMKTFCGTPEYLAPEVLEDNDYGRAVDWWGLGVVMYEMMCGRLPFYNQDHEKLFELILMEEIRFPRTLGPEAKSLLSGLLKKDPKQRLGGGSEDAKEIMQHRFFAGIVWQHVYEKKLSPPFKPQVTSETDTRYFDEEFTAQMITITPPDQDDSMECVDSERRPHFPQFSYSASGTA
T7 sequence (Q9H422 whole entry): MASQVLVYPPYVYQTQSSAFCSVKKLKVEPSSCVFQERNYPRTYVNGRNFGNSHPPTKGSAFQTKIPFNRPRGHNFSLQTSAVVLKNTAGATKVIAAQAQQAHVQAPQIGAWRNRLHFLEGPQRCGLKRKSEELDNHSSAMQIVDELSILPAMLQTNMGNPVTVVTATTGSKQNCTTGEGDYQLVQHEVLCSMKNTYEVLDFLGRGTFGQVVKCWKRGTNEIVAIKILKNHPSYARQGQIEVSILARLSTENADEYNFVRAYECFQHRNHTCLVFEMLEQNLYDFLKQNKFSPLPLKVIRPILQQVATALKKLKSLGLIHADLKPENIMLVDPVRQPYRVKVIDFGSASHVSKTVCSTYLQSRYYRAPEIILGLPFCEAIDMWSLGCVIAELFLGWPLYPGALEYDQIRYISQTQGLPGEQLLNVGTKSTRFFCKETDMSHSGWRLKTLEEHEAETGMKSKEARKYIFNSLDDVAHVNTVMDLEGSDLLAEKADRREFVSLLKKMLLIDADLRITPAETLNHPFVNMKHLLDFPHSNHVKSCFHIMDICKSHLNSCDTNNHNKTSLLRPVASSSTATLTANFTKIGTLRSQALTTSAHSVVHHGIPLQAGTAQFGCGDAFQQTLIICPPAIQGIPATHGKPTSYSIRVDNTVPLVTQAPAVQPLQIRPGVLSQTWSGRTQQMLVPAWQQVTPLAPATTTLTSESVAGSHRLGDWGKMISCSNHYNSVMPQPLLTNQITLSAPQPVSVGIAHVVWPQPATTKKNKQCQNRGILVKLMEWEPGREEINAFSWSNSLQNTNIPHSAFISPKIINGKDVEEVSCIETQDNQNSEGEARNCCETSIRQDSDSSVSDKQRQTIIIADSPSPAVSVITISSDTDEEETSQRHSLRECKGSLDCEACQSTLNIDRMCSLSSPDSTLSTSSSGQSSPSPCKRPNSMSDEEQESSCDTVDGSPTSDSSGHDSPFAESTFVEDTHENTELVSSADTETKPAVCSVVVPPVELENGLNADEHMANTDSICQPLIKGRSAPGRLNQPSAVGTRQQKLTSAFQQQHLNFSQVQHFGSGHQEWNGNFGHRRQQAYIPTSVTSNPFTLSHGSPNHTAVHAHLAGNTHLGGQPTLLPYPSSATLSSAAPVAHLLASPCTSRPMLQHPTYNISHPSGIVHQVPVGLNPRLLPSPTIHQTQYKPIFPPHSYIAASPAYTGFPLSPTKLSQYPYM
T8 sequence (Q05397 whole entry): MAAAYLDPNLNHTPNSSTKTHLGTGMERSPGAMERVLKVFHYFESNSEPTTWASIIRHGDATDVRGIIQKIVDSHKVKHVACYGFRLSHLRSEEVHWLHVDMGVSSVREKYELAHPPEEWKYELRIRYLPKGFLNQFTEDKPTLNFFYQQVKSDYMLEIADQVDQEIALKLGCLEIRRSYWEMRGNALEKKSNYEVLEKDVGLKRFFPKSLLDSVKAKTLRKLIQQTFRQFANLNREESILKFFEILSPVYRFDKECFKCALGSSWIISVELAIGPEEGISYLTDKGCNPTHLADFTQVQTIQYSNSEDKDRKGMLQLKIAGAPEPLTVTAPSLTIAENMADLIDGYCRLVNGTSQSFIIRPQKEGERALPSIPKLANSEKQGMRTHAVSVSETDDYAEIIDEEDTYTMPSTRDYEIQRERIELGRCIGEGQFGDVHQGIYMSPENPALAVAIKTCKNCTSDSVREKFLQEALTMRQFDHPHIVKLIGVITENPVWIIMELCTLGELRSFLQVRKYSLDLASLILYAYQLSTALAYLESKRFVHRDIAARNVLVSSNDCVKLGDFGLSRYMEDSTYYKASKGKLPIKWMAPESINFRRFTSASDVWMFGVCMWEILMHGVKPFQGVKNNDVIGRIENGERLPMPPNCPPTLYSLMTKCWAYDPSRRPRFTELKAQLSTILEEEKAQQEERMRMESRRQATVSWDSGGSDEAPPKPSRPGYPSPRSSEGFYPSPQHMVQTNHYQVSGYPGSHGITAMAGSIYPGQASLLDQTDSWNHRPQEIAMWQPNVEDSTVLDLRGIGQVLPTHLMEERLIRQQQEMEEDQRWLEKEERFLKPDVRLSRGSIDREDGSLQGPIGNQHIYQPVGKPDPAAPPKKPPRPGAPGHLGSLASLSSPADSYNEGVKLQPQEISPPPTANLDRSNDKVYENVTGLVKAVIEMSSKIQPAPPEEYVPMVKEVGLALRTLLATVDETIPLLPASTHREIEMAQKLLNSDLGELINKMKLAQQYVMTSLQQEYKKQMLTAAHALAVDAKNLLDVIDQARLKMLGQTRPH

| Molecule | ADRBK2 (GRK3) % Inhibition (ADRBK2 (GRK3); 10 µM compound, ATP Km app) [%] | AKT1 (PKB alpha) % Inhibition (AKT1 (PKB alpha); 10 µM compound, ATP Km app) [%] | AURKC (Aurora C) % Inhibition (AURKC (Aurora C); 10 µM compound, ATP Km app) [%] | CSNK1D (CK1 delta) % Inhibition (CSNK1D (CK1 delta); 10 µM compound, ATP Km app) [%] | DYRK1A % Inhibition (DYRK1A; 10 µM compound, ATP Km app) [%] | EPHB1 % Inhibition (EPHB1; 10 µM compound, ATP Km app) [%] | HIPK3 (YAK1) % Inhibition (HIPK3 (YAK1); 10 µM compound, ATP Km app) [%] | PTK2 (FAK) % Inhibition (PTK2 (FAK); 10 µM compound, ATP Km app) [%] | inhibition at 10 µM (ADRBK2 (GRK3)) [%] | inhibition at 10 µM (AKT1 (PKB alpha)) [%] | inhibition at 10 µM (AURKC (Aurora C)) [%] | inhibition at 10 µM (CSNK1D (CK1 delta)) [%] | inhibition at 10 µM (DYRK1A) [%] | inhibition at 10 µM (EPHB1) [%] | inhibition at 10 µM (HIPK3 (YAK1)) [%] | inhibition at 10 µM (PTK2 (FAK)) [%] | Kinase selectivity profile in words [1] | Number of kinases with significant activity (greater than 80% inhibition) out of the 225 tested [1] |
| --- | --- | --- | --- | --- | --- | --- | --- | --- | --- | --- | --- | --- | --- | --- | --- | --- | --- | --- |
| XMD8-92 [Compound 2, reference compound] | -7 | 41 | 34 | 4.56 | 2 | 5.39 | 1.8 | 47 | – | – | – | – | – | – | – | – | – | – |
| Cc1ncc(-c2nc(Nc3ccc(C(=O)NCCN4CCCCC4)cc3)ncc2F)n1C(C)C [Compound 3] | – | – | – | – | – | – | – | – | 0.689 | 19 | 89 | 92 | 93 | 94 | 88 | 94 | most promiscuous | – |
| Cc1cc(Nc2nc(N)nn2C(=O)NC(C)C)ccc1Cl [Compound 5] | – | – | – | – | – | – | – | – | -7 | 0.31 | 54 | -2 | 1.48 | 7.51 | 6.56 | 10 | most selective | five |
